From patent publication US9040518B2, “Chemical compounds” (GlaxoSmithKline LLC, priority 2010, dated 2015) come the findings set out here.

The structures appear in SMILES notation. Structures can show the parent of a compound that is named as a salt.

ileal bile acid cotransporter (iBAT), sequence (Q12908 whole entry): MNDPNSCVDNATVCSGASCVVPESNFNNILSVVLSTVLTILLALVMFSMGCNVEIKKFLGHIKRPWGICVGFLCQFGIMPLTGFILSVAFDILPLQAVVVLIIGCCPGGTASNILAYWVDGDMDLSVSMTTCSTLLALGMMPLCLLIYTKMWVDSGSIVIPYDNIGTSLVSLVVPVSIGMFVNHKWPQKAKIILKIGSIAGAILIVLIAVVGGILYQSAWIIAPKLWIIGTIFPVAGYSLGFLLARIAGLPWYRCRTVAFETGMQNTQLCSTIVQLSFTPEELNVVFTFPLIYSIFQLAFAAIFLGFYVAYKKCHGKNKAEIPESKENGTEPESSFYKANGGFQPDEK

The target in this experiment is ileal bile acid cotransporter (iBAT) (Homo sapiens (Human), UniProt Q12908). Description: Human iBAT inhibition: [3H]-taurocholate uptake into HEK293 cells expressing human iBAT. In kind it is cell-based. The note with it: HEK293 cells transduced with human iBAT Bacmam virus, 90 minutes at ambient temperature, mean of at least 2 datapoints. The method, then: Method for Determination of Human iBAT Inhibition:
In preparation for measurement of bile acid uptake into cells expressing the ileal bile acid cotransporter (iBAT), HEK293 cells were cultured in DMEM/F12 supplemented with 10% FBS. Twenty four hours prior to running an experiment, cells were harvested when at a confluence of 80-90%. Cells were seeded in poly-d-lysine coated plates at 50,000 cells per well, and human iBAT Bacmam virus was added such that each well contains 3.67×10e6 pfu (73.4pfu/cell). Each assay plate was covered with Breathe Easy Seal and placed in an incubator for 24 hours to allow expression of the transporter.
On the day of the uptake experiment, 10 mM HEPES was added to Hank's Balanced Salt Solution, and the pH was adjusted to 7.4 with TRIS (HBSSH). The assay buffer was prepared by adding […] [^3H]-taurocholate and 10 μM cold taurocholate to room temperature HBSSH. A separate washing buffer was prepared by adding 10 μM cold taurocholate to HBSSH (˜30 ml per assay plate) and placed on ice. Using 100% DMSO, 8 point, 3-fold dilution curves for each test compound was prepared starting at 200 μM. Similarly, an 8 point dose response curve was prepared of the control compound [(3R,5R)-3-butyl-3-ethyl-7,8-bis(methyloxy)-5-phenyl-2,3,4,5-tetrahydro-1,4-benzothiazepine 1,1-dioxide (Brieaddy, L. E. WO9605188, 1996)] starting at 1.8 mM. Drug plates were created by adding 3 μL of each concentration to a v-bottom 96-well plate then diluted 60-fold with 177 μL of assay buffer. Plates were removed from the incubator and allowed to cool to ambient temperature. Media was aspirated, and wells were washed once with 300 μL HBSSH. 50 μL of each dose response curve concentration was added in triplicate by column to the assay plates, reserving column 10 for control (assay buffer+1.67% DMSO) and columns 11 and 12 for the control compound. Plates were incubated at ambient temperature for 90 minutes then the plates were aspirated then washed 1× with 300 μL of wash buffer. 220 μL of Microscint 20 was added to each well, and the plates were sealed. The amount of [^3H]-taurocholate in cell lysate was quantitated using a microplate scintillation counter on the following day.
IC50's can be generated using the formula, y=(Vmax*x^n)/(K^n+x^n).
In the case of `CCCC[C@]1(CC)CS(=O)(=O)c2cc(CNC(=O)CNCC(=O)O)c(OC)cc2[C@@H](c2ccccc2)N1` [Example 39, N-[2-({[(3R,5R)-3-butyl-3-ethyl-7-(methyloxy)-1,1-dioxido-5-phenyl-2,3,4,5-tetrahydro-1,4-benzothiazepin-8-yl]methyl}amino)-2-oxoethyl]glycine trifluoroacetate salt], the IC50 (in general, the concentration that gives 50% inhibition) is 619 nM. This lies in the sub-micromolar range.

The molecule `CCCC[C@]1(CC)CS(=O)(=O)c2cc(CN(C)CCC(=O)O)c(OC)cc2[C@@H](c2ccccc2)N1` [Example 29, N-{[(3R,5R)-3-butyl-3-ethyl-7-(methyloxy)-1,1-dioxido-5-phenyl-2,3,4,5-tetrahydro-1,4-benzothiazepin-8-yl]methyl}-N-methyl-β-alanine trifluoroacetate salt] showed an IC50 of 367 nM.

As to `CCCC[C@]1(CC)CS(=O)(=O)c2cc(CNC(=O)CS(=O)(=O)O)c(OC)cc2[C@@H](c2ccccc2)N1` [Example 37, 2-({[(3R,5R)-3-butyl-3-ethyl-7-(methyloxy)-1,1-dioxido-5-phenyl-2,3,4,5-tetrahydro-1,4-benzothiazepin-8-yl]methyl}amino)-2-oxoethanesulfonic acid], the IC50 was found to be 9 nM.

For `CCCC[C@]1(CC)CS(=O)(=O)c2cc(CN(CP(=O)(O)O)CP(=O)(O)OCC)c(OC)cc2[C@@H](c2ccccc2)N1` [Example 61, [({[(3R,5R)-3-butyl-3-ethyl-7-(methyloxy)-1,1-dioxido-5-phenyl-2,3,4,5-tetrahydro-1,4-benzothiazepin-8-yl]methyl}{[(ethyloxy)(hydroxy)phosphoryl]methyl}amino)methyl]phosphonic acid triammonium salt], the IC50 worked out at 3360 nM. This IC50 lies about 370-fold higher than the previous one.

Molecule `CCCC[C@]1(CC)CS(=O)(=O)c2cc(C(CC(=O)O)CC(=O)O)c(OC)cc2[C@@H](c2ccccc2)N1` [Example 72, 3-[(3R,5R)-3-butyl-3-ethyl-7-(methyloxy)-1,1-dioxido-5-phenyl-2,3,4,5-tetrahydro-1,4-benzothiazepin-8-yl]pentanedioic acid] showed an IC50 above 3000 nM.

Molecule `CCCC[C@]1(CC)CS(=O)(=O)c2cc(CN[C@H](CC(=O)O)C(=O)O)c(OC)cc2[C@@H](c2ccccc2)N1` [Example 28, N-{[(3R,5R)-3-butyl-3-ethyl-7-(methyloxy)-1,1-dioxido-5-phenyl-2,3,4,5-tetrahydro-1,4-benzothiazepin-8-yl]methyl}-D-aspartic acid trifluoroacetate salt] displayed an IC50 of 55 nM.

For the molecule `CCCCC1(CCCC)CS(=O)(=O)c2cc(CNC(CC(=O)O)CC(=O)O)c(OC)cc2C(c2ccccc2)N1` (stereo not shown) [Example 65, 3-({[3,3-dibutyl-7-(methyloxy)-1,1-dioxido-5-phenyl-2,3,4,5-tetrahydro-1,4-benzothiazepin-8-yl]methyl}amino)pentanedioic acid trifluoroacetate salt], the IC50 stood at 337 nM.

For the molecule `CCCC[C@]1(CC)CS(=O)(=O)c2cc(CNCC(=O)O)c(N(C)C)cc2[C@@H](c2ccccc2)N1` [Example 68, N-{[(3R,5R)-3-butyl-7-(dimethylamino)-3-ethyl-1,1-dioxido-5-phenyl-2,3,4,5-tetrahydro-1,4-benzothiazepin-8-yl]methyl}glycine trifluoroacetate salt], the 50% inhibitory concentration (IC50) was 1 nM.

On to `CCCC[C@]1(CC)CS(=O)(=O)c2cc(/C=C/C(=O)O)c(OC)cc2[C@@H](c2ccccc2)N1` [Example 9, (2E)-3-[(3R,5R)-3-butyl-3-ethyl-7-(methyloxy)-1,1-dioxido-5-phenyl-2,3,4,5-tetrahydro-1,4-benzothiazepin-8-yl]-2-propenoic acid ammonium salt], for which 3 nM corresponded to half-maximal inhibition (IC50).

Take `CCCC[C@]1(CC)CS(=O)(=O)c2cc(CN(CCS(=O)(=O)O)CCS(=O)(=O)O)c(OC)cc2[C@@H](c2ccccc2)N1` [Example 36, 2,2′-({[(3R,5R)-3-butyl-3-ethyl-7-(methyloxy)-1,1-dioxido-5-phenyl-2,3,4,5-tetrahydro-1,4-benzothiazepin-8-yl]methyl}imino)diethanesulfonic acid trifluoroacetate salt]: the IC50 came out at 365 nM.

`CCCC[C@]1(CC)CS(=O)(=O)c2cc(CNC(CC(=O)O)CC(=O)O)c(OC)cc2[C@@H](c2ccccc2)N1` [Example 26, 3-({[(3R,5R)-3-butyl-3-ethyl-7-(methyloxy)-1,1-dioxido-5-phenyl-2,3,4,5-tetrahydro-1,4-benzothiazepin-8-yl]methyl}amino)pentanedioic acid] returned an IC50 of 43 nM.

In turn, `CCCC[C@]1(CC)CS(=O)(=O)c2cc(CCCC(=O)O)c(OC)cc2[C@@H](c2ccccc2)N1` [Example 23, 4-[(3R,5R)-3-butyl-3-ethyl-7-(methyloxy)-1,1-dioxido-5-phenyl-2,3,4,5-tetrahydro-1,4-benzothiazepin-8-yl]butanoic acid trifluoroacetate salt] returned an IC50 of 2 nM.

As for `CCCC[C@]1(CC)CS(=O)(=O)c2cc(CN3CCC[C@@H]3C(=O)O)c(OC)cc2[C@@H](c2ccccc2)N1` [Example 57, 1-{[(3R,5R)-3-butyl-3-ethyl-7-(methyloxy)-1,1-dioxido-5-phenyl-2,3,4,5-tetrahydro-1,4-benzothiazepin-8-yl]methyl}-D-proline ammonium salt], the IC50 came to 751 nM.

Regarding `CCCC[C@]1(CC)CS(=O)(=O)c2cc(CN[C@@H](CO)C(=O)O)c(OC)cc2[C@@H](c2ccccc2)N1` [Example 52, N-{[(3R,5R)-3-butyl-3-ethyl-7-(methyloxy)-1,1-dioxido-5-phenyl-2,3,4,5-tetrahydro-1,4-benzothiazepin-8-yl]methyl}-L-serine bis-ammonium salt], half-maximal inhibition (IC50) required 59 nM.

Molecule `CCCC[C@]1(CC)CS(=O)(=O)c2cc(CNC(=O)CP(=O)(O)O)c(OC)cc2[C@@H](c2ccccc2)N1` [Example 38, [2-({[(3R,5R)-3-butyl-3-ethyl-7-(methyloxy)-1,1-dioxido-5-phenyl-2,3,4,5-tetrahydro-1,4-benzothiazepin-8-yl]methyl}amino)-2-oxoethyl]phosphonic acid trifluoroacetate salt] returned an IC50 of 249 nM.

The molecule `CCCCC1(CCCC)CS(=O)(=O)c2cc(CP(=O)(O)O)c(OC)cc2C(c2ccccc2)N1` (stereo not shown) [Example 67, {[3,3-dibutyl-7-(methyloxy)-1,1-dioxido-5-phenyl-2,3,4,5-tetrahydro-1,4-benzothiazepin-8-yl]methyl}phosphonic acid trifluoroacetate salt] came in with an IC50 of 52 nM. Compared with the last molecule, the IC50 is about 4.8-fold lower.

Molecule `CCCC[C@]1(CC)CS(=O)(=O)c2cc(CNCP(=O)(O)O)c(OC)cc2[C@@H](c2ccccc2)N1` [Example 62, [({[(3R,5R)-3-butyl-3-ethyl-7-(methyloxy)-1,1-dioxido-5-phenyl-2,3,4,5-tetrahydro-1,4-benzothiazepin-8-yl]methyl}amino)methyl]phosphonic acid trifluoroacetate salt] had an IC50 of 3900 nM.

The molecule `CCCC[C@]1(CC)CS(=O)(=O)c2cc(CP(=O)(O)O)c(OC)cc2[C@@H](c2ccccc2)N1` [Example 6, {[(3R,5R)-3-butyl-3-ethyl-7-(methyloxy)-1,1-dioxido-5-phenyl-2,3,4,5-tetrahydro-1,4-benzothiazepin-8-yl]methyl}phosphonic acid hydrochloride salt] registered an IC50 of 23 nM.

In turn, `CCCC[C@]1(CC)CS(=O)(=O)c2cc(CNCC(=O)O)c(OC)cc2[C@@H](c2ccccc2)N1O` [Example 46, N-{[(3R,5R)-3-butyl-3-ethyl-4-hydroxy-7-(methyloxy)-1,1-dioxido-5-phenyl-2,3,4,5-tetrahydro-1,4-benzothiazepin-8-yl]methyl}glycine] registered an IC50 of 2 nM.
